Measurements from publication PMC6735331, “Competitive α-glucosidase inhibitors, dihydrobenzoxanthones, from the barks of Artocarpus elasticus” (Journal of Enzyme Inhibition and Medicinal Chemistry, 2019).
Entries after “also recorded” stand apart in the source; their conditions may differ. Read-outs that look alike come from different tables or passages of the source.

Tests used:
[1] = molecular target: T1, α-glucosidase (EC3.2.1.20) (Saccharomyces cerevisiae, UniProt P53341); test: α-Glucosidase enzyme kinetics (Lineweaver–Burk, Dixon plots, secondary plots, Yang's method); type: biochemical; parameters: Vmax: unit not given here; settings: for Kik/Kiv: Yang's method; for Kinetic mode: double reciprocal (Lineweaver–Burk) plots; for KIS: inhibitor binding with enzyme-substrate complex, secondary plots of intercepts
T1 construct: purchased Sigma Aldrich
T1 sequence (P53341 whole entry): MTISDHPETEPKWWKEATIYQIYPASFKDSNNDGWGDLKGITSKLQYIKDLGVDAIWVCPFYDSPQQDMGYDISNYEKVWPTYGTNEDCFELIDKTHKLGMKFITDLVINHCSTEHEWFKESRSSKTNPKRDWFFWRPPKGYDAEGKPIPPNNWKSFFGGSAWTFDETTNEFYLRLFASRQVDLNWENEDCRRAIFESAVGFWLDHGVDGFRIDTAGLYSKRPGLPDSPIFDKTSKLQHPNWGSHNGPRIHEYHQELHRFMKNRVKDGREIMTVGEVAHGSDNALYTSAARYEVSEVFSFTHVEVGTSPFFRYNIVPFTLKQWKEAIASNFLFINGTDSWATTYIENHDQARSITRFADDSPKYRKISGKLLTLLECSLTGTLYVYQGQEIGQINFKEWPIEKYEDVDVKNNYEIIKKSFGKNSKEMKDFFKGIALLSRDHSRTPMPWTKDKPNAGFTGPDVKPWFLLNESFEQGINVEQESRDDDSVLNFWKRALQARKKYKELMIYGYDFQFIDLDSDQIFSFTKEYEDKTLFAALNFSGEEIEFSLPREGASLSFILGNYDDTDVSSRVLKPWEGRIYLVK
Protocol: Similarly, the enzyme kinetic modes were clarified using a different p-nitrophenyl-α-D-glucopyranoside substrate (0, 0.5, 1, and 2 mM) and inhibitors concentrations. Analysis of the data used to determine the individual parameters of curves was prepared in the nonlinear regression program Sigma Plot (SPCC Inc., Chicago, IL, USA). The kinetic parameters, Michaelis–Menten (Km) and maximum velocity (Vmax), were found using Lineweaver–Burk plots. The dissociation constants between inhibitor and enzyme (Ki) were found from Dixon plots. Two inhibition constants for inhibitor binding with either free or enzyme-substrate complex, KI or KIS, were calculated from secondary plots of the slopes of the straight lines or vertical intercept (1/ Vmaxapp ), respectively, verse the concentration of inhibitors by Equations (2)–(4). Kik and Kiv rate constants were calculated according to Equations (5) and (6) proposed by Yang et al.[20]: (2) 1/V=Km/Vmax(1 + [I]/KI)1/S + 1/Vmax (3) Slope =Km/KIVmax[I] +Km/Vmax (4) Intercept = 1/KISVmax[I] +[…] (5) Km=Km0× (1 + [I]/Kik) (6) Vm=Vm0× (1 + [I]/Kiv)

[2] = molecular target: T1, α-glucosidase (EC3.2.1.20); test: biochemical
Protocol: The inhibitory activity of α-glucosidase (EC3.2.1.20) was carried out with a few changes from literature reported method, using p-nitrophenyl-α-D-glucopyranoside at optimal pH of 6.8 (50 mM phosphate buffer)[3]. Inhibitors were dissolved and diluted to a needed concentration in DMSO. […] The absorbance of formed p-nitrophenol immediately measured with a wavelength of 405 nm at 37 °C. […] Calculation of the % of inhibition was as follows: (1) Activity (%)=100[1+([I]/IC50)]

α-glucosidase [3] = molecular target: T2, α-glucosidase (Saccharomyces cerevisiae, UniProt P53341); test: Binding affinity measurement by fluorescence quenching (Stern–Volmer); settings: for KSV: Stern–Volmer constant
T2 construct: purchased Sigma Aldrich
T2 sequence (P53341 whole entry): as above
Protocol: 180 µL of 50 mM phosphate buffer (pH 6.8) with 10 µL of 0.2 unit/mL α-glucosidase were added into the 96-well black immuno-plates then 10 µL different concentrations (2–32 µM) of inhibitor were added. Fluorescent emission spectra were recorded from 300 to 400 nm, emission slits adjusted to 2.0 nm, and the excitation was 250 nm, using spectrophotometer (SpectraMax M3). There was no significant emission from any ingredient in the assay system under given experimental conditions (i.e. emission from 300 to 400 nm). A level of affinity was expressed with KSV, which was analysed using the Stern–Volmer equation: (12) […]=1+KSV[Qf] where F0 and F are the fluorescence intensities in the absence and presence of a quencher. Qf is a concentration of compounds.

[4] = molecular target: T1, α-glucosidase (EC3.2.1.20); test: α-Glucosidase enzyme kinetics (Lineweaver–Burk, Dixon plots, secondary plots, Yang's method); type: biochemical; settings: enzyme activity vs. enzyme concentration at different inhibitor concentrations
α-glucosidase [5] = molecular target: T2, α-glucosidase; test: Progress curves and time-dependent (slow-binding) assay; type: biochemical
Protocol: Time-dependent assays of inhibitors at the different preincubation time (0, 15, 30, 45, 60 and 80 min) were accomplished using 0.05 unit/mL final concentration of α-glucosidase and p-nitrophenyl-α-D-glucopyranoside substrate (1 mM) in 50 mM phosphate buffer (pH 6.8) at 37 °C[21]. The progress curves were monitored every 30 s for 30 min. Furthermore, to clearly understand the time-dependent inhibition mode of α-glucosidase, inhibitors were assayed using different concentrations. Accordingly, the progress curves were calculated using Equations (7)–(11). Analysis of the data was prepared by the nonlinear regression program Sigma Plot (SPCC Inc., Chicago, IL, USA): (7) [P]t/[E]= vst+ vi−vs/kobs(1−e^−kobst) where [P]t is the concentration of product formed and [E] is the total enzyme concentration. (8) v/v0= exp (−kobst) (9) Enz+I⇄k4k3Enz−I (10) kobs=k4(1+[I]/Kiapp) (11) Kiapp=k4/k3

[6] = from Dixon plots, read-out: Ki (inhibition constant)
[7] = p-NPG substrate, 50 mM phosphate buffer pH 6.8, 37 °C, read-out: IC50
[8] = fluorescence quenching, read-out: KA (converted)
[9] = slow-binding fit, Equations (10) and (11)

Row | Structure (SMILES) | Vmax ([1]; [I] 7.5 μM) | Kik/Kiv ([1]; [I] 7.5 μM) | Vmax ([1]; [I] 15.0 μM) | Kik/Kiv ([1]; [I] 15.0 μM) | Vmax ([1]; [I] 30.0 μM) | Kik/Kiv ([1]; [I] 30.0 μM) | Kinetic mode [1] | Ki [1, 6] [µM] | IC50 [2, 7] [µM] | KSV (α-glucosidase [3]; pH 6.8, 37 °C) | Kd (α-glucosidase [3]; [8]) [µM] | KSV (α-glucosidase [3]) | KIS [1] [µM] | other results
1 | C=C(C)[C@H]1Cc2c(oc3c4c(cc(O)c3c2=O)OC(C)(C)C=C4)-c2c(O)cc(O)c(O)c21 [Compound 2, artobiloxanthone] | 9.7056 | 76.6587 | 9.6712 | 102.4604 | 9.8012 | 209.3396 | Competitive | 5.1 | 8.6 ± 0.5 | 1.53 ×10^5 L·mol^–1 | 1.32 | – | – | –
2 | CC1(C)Oc2c(O)cc(O)c3c2C1Cc1c-3oc2cc(O)cc(O)c2c1=O (centres unmarked) [Compound 3, artoindonesianin P] | – | – | – | – | – | – | Competitive | 12.6 | 25.4 ± 0.7 | 0.51 ×10^5 L·mol^–1 | 1.75 | 0.51 × 10^5 Lmol^−1 | – | Vmax ([1]; [I] 17.5 μM): 6.6800; Kik/Kiv ([1]; [I] 17.5 μM): 23.8593; Vmax ([1]; [I] 35 μM): 6.7889; Kik/Kiv ([1]; [I] 35 μM): 31.6240; Vmax ([1]; [I] 70 μM): 6.7204; Kik/Kiv ([1]; [I] 70 μM): 75.7804
3 | CC(C)=CCCC1(C)C=Cc2c(cc(O)c3c(=O)c(CC=C(C)C)c(-c4cc(O)c(O)cc4O)oc23)O1 (single isomer, unassigned; (-)) [Compound 5, (-)-2-(2,4,5-trihydroxyphenyl)-3-(3-methyl-2-buten-1-yl)-5-hydroxy-8-methyl-8-(4-methyl-3-penten-1-yl)-4H,8H-benzo[1,2-b:3,4-b']dipyran-4-one] | 4.74 | 3.79 | 3.67 | 3.18 | 2.79 | 3.25 | Mixed type I | – | 8.8 ± 0.3 | 1.63 ×10^5 L·mol^–1 | 1.23 | – | 20.4 | Ki ([1]; inhibitor binding with free enzyme, secondary plots of slopes, read-out: KI): 5.4 µM
4 | CC1(C)C=Cc2c(cc(O)c3c(=O)c4c(oc23)-c2c(O)cc(O)c3c2C(C4)C(C)(C)O3)O1 (centres unmarked) [Compound 4, cycloartobiloxanthone] | 6.3816 | 16.6987 | 7.3692 | 11.4837 | 7.4627 | 20.2662 | Competitive | 5.8 | 9.6 ± 0.6 | 1.29 ×10^5 L·mol^–1 | 1.27 | – | – | –
5 | CC(C)=CCc1c(-c2cc(O)c(O)cc2O)oc2c3c(cc(O)c2c1=O)OC(C)(C)C=C3 [Compound 6, artonin E] | 5.0352 | 3.7049 | 4.2992 | 2.5098 | 3.6219 | 1.8101 | Mixed type I | – | – | 0.93 ×10^5 L·mol^–1 | – | 0.93 × 10^5 Lmol^−1 | 51.7 | Ki ([1]; KI, inhibitor binding with free enzyme, secondary plots of slopes): 15.4 µM; Ki ([1]; Ki (inhibition constant), from Dixon plots): 15.8 µM; IC50 [2]: 16.2 ± 0.8 µM; Kd (α-glucosidase [3]): 1.28 µM
6 | C=C(C)C1Cc2c(oc3cc(OC)cc(O)c3c2=O)-c2c(O)cc(O)c(O)c21 (centres unmarked) [Compound 1, 1,3,4,8-tetrahydroxy-10-methoxy-5-(prop-1-en-2-yl)-5,6-dihydro-benzo[c]xanthen-7-one] | – | – | – | – | – | – | Competitive | 2.9 | 7.6 ± 0.2 | 1.84 ×10^5 L·mol^–1 | 1.27 | 1.84 × 10^5 Lmol^−1 | – | Vmax ([1]; [I] 4.0 μM): 6.30; Kik/Kiv ([1]; [I] 4.0 μM): 55.80; Vmax ([1]; [I] 8.0 μM): 6.50; Kik/Kiv ([1]; [I] 8.0 μM): 48.88; Vmax ([1]; [I] 16.0 μM): 7.55; Kik/Kiv ([1]; [I] 16.0 μM): 29.79; Reversibility of inhibition [4]: reversible inhibitor; Time-dependent inhibition mode (α-glucosidase [5]; preincubation time dependence, kobs vs [I]): competitive and reversible simple slow-binding; also recorded: slow-binding inhibitor; k3 (α-glucosidase [5]; [9]): 728 M⁻¹ s⁻¹; k4 (α-glucosidase [5]; [9]): 0.0166 min⁻¹; Ki (α-glucosidase [5]; slow-binding fit, Kiapp = k4/k3): 0.38 µM
